We go through seven compounds from ChEMBL document CHEMBL1147281, “Antimicrobial and cytotoxic activity of rottlerin-type compounds from Hypericum drummondii” (1989).

What all share (format): functional
Test [1] relates to Escherichia coli. Put plainly: Antimicrobial activity against Escherichia coli after 48 hrs by twofold serial dilution method.
For test [2], the system named is Staphylococcus aureus. In words: Antimicrobial activity against Staphylococcus aureus ATCC 6538 after 24 hrs by twofold serial dilution method. As to conditions: ATCC 6538, 24 h.
Test [3] in a line: Cytotoxicity against human lung cancer cells after 72 hrs. As to conditions: Cancer cell lines, read-out: ED50 (the source's name).
The nature of test [4]: Cytotoxicity against human melanoma cells after 72 hrs. As to conditions: Melanoma cell, read-out: ED50 (the source's name).
Test [5] in a line: Cytotoxicity against human colon cancer cells after 72 hrs. As to conditions: Cancer cell lines, read-out: ED50 (the source's name).
In test [6] the test system is P388. In words: Cytotoxicity against mouse P388 cells after 48 hrs. To be noted: P388, 48 h, read-out: ED50 (the source's name).
Test [7] concerns Mycolicibacterium smegmatis. In words: Antimicrobial activity against Mycobacterium smegmatis ATCC 607 after 48 hrs by twofold serial dilution method. As to conditions: ATCC 607, 48 h.
Test [8] relates to Bacillus subtilis. In words: Antimicrobial activity against Bacillus subtilis ATCC 6633 after 24 hrs by twofold serial dilution method. As to conditions: ATCC 6633, 24 h.
Test [9] deals with Pseudomonas aeruginosa. Put plainly: Antimicrobial activity against Pseudomonas aeruginosa after 48 hrs by twofold serial dilution method.
The subject of test [10] is KB. Put plainly: Cytotoxicity against human KB cells after 72 hrs. As to conditions: read-out: ED50 (the source's name).
Test [11] is described as follows: Cytotoxicity against human breast cancer cells after 72 hrs. As to conditions: Cancer cell lines, read-out: ED50 (the source's name).

Values after ≈ are worked out from the molar mass of the structure shown. Where only a bound is given, the exact number is not on record here.

As usually defined, the MIC is the smallest concentration in the dilution series that meets the test's criterion for growth inhibition. A low value points to a more susceptible organism. Regarding `CCC(=O)C1=C(O)C(C)(C)C(O)=C(CC2=C(O)C(C)(C)C(O)=C(C(=O)CC)C2=O)C1=O`, the minimal inhibitory concentration (MIC) in test [1] was over 100 µg/mL; in test [2], 50 µg/mL (≈ 116 µM); in test [7], 50 µg/mL (≈ 116 µM); in test [8] it was 12.5 µg/mL (≈ 28.9 µM); in test [9] it was over 100 µg/mL. Further, the EC50 in test [3], in test [4], in test [5], in test [6], in test [10] and in test [11] was over 50 µg/mL in each case.
As to `CC(=O)C1=C(O)C(C)(C)C(O)=C(CC2=C(O)C(C)(C)C(O)=C(C(C)=O)C2=O)C1=O`, the minimum inhibitory concentration (MIC) was over 100 µg/mL in [1]; 100 µg/mL (≈ 247 µM) in test [2]; 100 µg/mL (≈ 247 µM) in [7]; 50 µg/mL (≈ 124 µM) in test [8]; over 100 µg/mL in test [9]. Also, the EC50 in test [3], in test [4], in [5], in [6], in [10] and in test [11] was over 50 µg/mL each time.
In the case of `CCC(=O)C1=C(O)C(C)(C)C(O)=C(Cc2c(O)c3c(c(C(=O)CC)c2O)OC(C)(C)C=C3)C1=O` [DRUMMONDIN A], the minimal inhibitory concentration (MIC) in test [1] is over 100 µg/mL; in test [2], 1.56 µg/mL (≈ 3.32 µM); in test [7], 1.56 µg/mL (≈ 3.32 µM); in test [8], 0.78 µg/mL (≈ 1.66 µM); in test [9], over 100 µg/mL. Moreover, the EC50 amounted to 4.5 µg/mL (≈ 9.56 µM) in test [3]; 8 µg/mL (≈ 17 µM) in [4]; 6.6 µg/mL (≈ 14 µM) in test [5]; 2.1 µg/mL (≈ 4.46 µM) in [6]; 4.5 µg/mL (≈ 9.56 µM) in [10]; 3.4 µg/mL (≈ 7.23 µM) in test [11].
With `CCC(=O)C1=C(O)C(C)(C)C(O)=C(Cc2c(O)c3c(c(C(C)=O)c2O)OC(C)(C)C=C3)C1=O` [DRUMMONDIN B], the minimum inhibitory concentration (MIC) in test [1] is over 100 µg/mL; in test [2] it was 3.12 µg/mL (≈ 6.83 µM); in test [7], 1.56 µg/mL (≈ 3.42 µM); in [8], 0.39 µg/mL (≈ 0.854 µM); in test [9], over 100 µg/mL. The EC50 in test [3] was 7 µg/mL (≈ 15.3 µM); in test [4], 5 µg/mL (≈ 11 µM); in [5], 6.3 µg/mL (≈ 13.8 µM); in [6] it was 1.9 µg/mL (≈ 4.16 µM); in test [10], 3.1 µg/mL (≈ 6.79 µM).
For the compound `CC(=O)C1=C(O)C(C)(C)C(O)=C(Cc2c(O)c3c(c(C(C)=O)c2O)OC(C)(C)C=C3)C1=O` [DRUMMONDIN C], the MIC in test [1] was over 100 µg/mL; in test [2] it was 3.12 µg/mL (≈ 7.05 µM); in [7], 6.25 µg/mL (≈ 14.1 µM); in test [8], 0.78 µg/mL (≈ 1.76 µM); in [9], over 100 µg/mL. Also, the EC50 was determined as 8.7 µg/mL (≈ 19.7 µM) in test [3]; 12 µg/mL (≈ 27.1 µM) in [4]; 11 µg/mL (≈ 24.9 µM) in test [5]; 2.8 µg/mL (≈ 6.33 µM) in test [6]; 8.6 µg/mL (≈ 19.4 µM) in [10]; 5.1 µg/mL (≈ 11.5 µM) in [11].
On to `CC(=O)C1=C(O)C(C)(CC=C(C)C)C(O)=C(Cc2c(O)c(CC=C(C)C)c(O)c(C(C)=O)c2O)C1=O` (stereo not drawn) [DRUMMONDIN F], for which the MIC was over 100 µg/mL in test [1]; 0.78 µg/mL (≈ 1.56 µM) in test [2]; 1.56 µg/mL (≈ 3.13 µM) in test [7]; 0.78 µg/mL (≈ 1.56 µM) in test [8]; over 100 µg/mL in test [9]. The EC50 in test [3] was 30 µg/mL (≈ 60.2 µM); in test [4], over 50 µg/mL; in test [5] it was 42 µg/mL (≈ 84.2 µM); in [6], 21 µg/mL (≈ 42.1 µM); in [10] it was 18 µg/mL (≈ 36.1 µM); in test [11], 21 µg/mL (≈ 42.1 µM).
In the case of `CN[C@@H]1[C@H](O[C@H]2[C@H](O[C@H]3[C@H](O)[C@@H](O)[C@H](N=C(N)N)[C@@H](O)[C@@H]3N=C(N)N)O[C@@H](C)[C@]2(O)C=O)O[C@@H](CO)[C@H](O)[C@H]1O` [STREPTOMYCIN], the MIC in test [2] turned out to be 6.25 µg/mL (≈ 10.7 µM); in test [7], 3.12 µg/mL (≈ 5.36 µM); in test [8], 0.78 µg/mL (≈ 1.34 µM).
